Patent US12558326B2, “Method for treating epilepsy” (Xenon Pharmaceuticals Inc., priority 2018, dated 2026)

Key:
DBA/2 mice = assay: Audiogenic seizure test in DBA/2 mice; assay type: in vivo, mouse; details: for Clonic Convulsion Incidence / Tonic Extension Incidence / Wild Running Incidence / Clonic Convulsion Latency / Tonic Extension Latency / Wild Running Latency / Audiogenic Response Score: 60 min prior; for Clonic Convulsion Incidence / Tonic Extension Incidence / Wild Running Incidence / Audiogenic Response Score: n=10; for Clonic Convulsion Latency / Tonic Extension Latency / Wild Running Latency / Audiogenic Response Score: mean ± SEM; for Clonic Convulsion Latency / Tonic Extension Latency / Wild Running Latency: maximum 60 s; for Audiogenic Response Score: score 0-4; for change in number of mice showing clonic convulsions / change in number of mice showing tonic convulsions / increase in latency to clonic convulsions / increase in latency to tonic convulsions / reduction of overall audiogenic response score: versus vehicle controls; for anticonvulsant activity in the audiogenic seizure test: (R/S)-fenfluramine at 15 and 30 mg/kg, (R)-fenfluramine at 30 mg/kg
Description: DBA/2 is a widely used inbred strain of mouse susceptible to audiogenic seizures due to the asp2 mutation. […] The objective of this study was to evaluate the anticonvulsant activity of (R/S)-fenfluramine and to compare it to (R)-fenfluramine in the DBA/2 mouse.
The method follows that described by Dilrmuiller et al., Neuroreport 4(6):683-686. Mice (DBA/2, 3-4 weeks old) were individually transferred (at 3-5 minute intervals) from the preparation room into an adjacent experimental room and placed in a Plexiglas™ jar (Diameter=40 cm; Height=35 cm) mounted with an electric bell (110-120 dB). Upon activating the bell, the occurrences and latencies to wild running fits, clonic and tonic seizures were measured. The number of deaths was also recorded. An audiogenic response score was assigned to each mouse as 0 (no seizure), 1 (wild running), 2 (clonic convulsion), 3 (tonic extension), or 4 (death). The bell was activated until a tonic seizure occurred or for a maximum of 60 seconds. Ten (10) mice were studied per group. The test was performed blind. All test compounds were dissolved in 0.9% saline (vehicle) and were administered by intraperitoneal (IP) injection at a dose volume of 10 mL/kg. Vehicle alone, (R/S)-fenfluramine (15 or 30 mg/kg) or (R)-fenfluramine (30 mg/kg) were administered 60 minutes prior to seizure induction. The positive reference compound (valproate; 180 mg/kg) was administered 30 minutes prior to seizure induction.

CF-1 mice = assay: 6 Hz seizure test (44 mA, 3 sec, corneal electrodes) in vivo; set-up: species or system mouse; details: 20 mg/kg IP; for percentage of animals protected against psychomotor seizures: one hour before assay, 6 Hz 44 mA, n=16 per group
Source text: This assay tests the ability of a test compound to block a psychomotor seizure induced by long-duration, low frequency (6 Hz) stimulation, and provides an art-accepted model of therapy-resistant partial seizure (Brown et al., 1953 J. Pharmacol. Exp. Therapeut. 107(3):273-283; White H S, Woodhead J H, Wilcox K S, General principles: discovery and preclinical development of antiepileptic drugs, In: Levy R H, Mattson R H, Meldrum B S, Perucca E, editors. Antiepileptic drugs 5th ed Philadelphia: Lippincott Williams & Wilkins; 2002. pp. 36-48; Hartman et al., 2008 Epilepsia 49(2):334-339).
Methods. Adult male CF1 mice (18-25 g) are pretreated intraperitoneally (i.p.) with the test compound at a dose of 20-100 mg/kg. If toxicity is noted in a pre-test screen for toxic effects when the test compound is administered i.p. at varying dosages, the dose is modified to avoid overt toxic effects. Each treatment group (n=4-16 mice/group) is examined for anticonvulsive effects at one or more of five time points (¼, ½, 1, 2, and 4 hr) after treatment with the test compound. Following pretreatment, each mouse receives a drop of 0.5% tetracaine hydrochloride applied to each eye. The mouse is then challenged with low-frequency (6 Hz) stimulation for 3 sec delivered through corneal electrodes. The low-frequency, long-duration stimuli are initially delivered at 32 mA intensity. Animals are manually restrained and released immediately following the stimulation and observed for the presence or absence of seizure activity. If the test compound is effective in the 32 mA screen, an additional assay is performed in which the stimulation current is increased to 44 mA but otherwise using the same protocol as described above. For dose-response studies, an n of 8 mice is used per dose and a dose-response curve is generated at the time of peak effect (TPE) at the specific stimulation intensity.
Typically, the 6 Hz stimulation results in a seizure characterized by a minimal clonic phase that is followed by stereotyped, automatistic behaviors, including jaw clonus, forelimb clonus, twitching of the vibrissae, and/or Straub-tail. Animals not displaying such behaviors are considered protected. Seizure score can be used as an additional measure of the efficacy of the investigational compound (Racine, R. J. 1972 Electroencephalogr. Clin. Neurophysiol. 32(3):281-294). Data are analyzed by Mann-Whitney U test, with p<0.05 determined to be statistically significant. For data obtained at each time point, results are expressed as the total number of animals protected out of the number of animals tested over time (e.g., 2/4 represents 2 out of 4 mice tested are protected).
In this Example, the in vivo anticonvulsant effects of candidate AEDs were tested in mice using the 6 Hz seizure test. The 6 Hz seizure test was performed essentially as described above in Biological Example 2, with minor modifications as presented here, including data collection at a time point that was one hour after administration of the candidate AEDs.
Compounds: Candidate AED compounds were prepared as described above unless otherwise noted, and were as follows: • Racemic fenfluramine ([rac]-fenfluramine hydrochloride); • (R)-fenfluramine ([R]-(−)-fenfluramine hydrochloride); • Racemic norfenfluramine ([rac]-norfenfluramine) was purchased from Toronto Research Chemicals, North York, Ontario, Canada; • (R)-norfenfluramine ([R]-(−)-norfenfluramine.
Animals: Adult male CF-1 albino mice (25-35 g) purchased from Harlan-Envigo (East Millstone, NJ). The mice were housed four per cage and had access to filtered water and chow ad libitum, throughout the experiment.
Compound Preparation and Administration: All four compounds were solubilized in sterile aqueous saline solution (0.9% NaCl). Compounds were administered to animals (16 mice in each treatment group) via intraperitoneal (IP) injection at 10 ml/kg volume, one hour prior to the assay. Control animals received vehicle (saline) only. […]

Structure (SMILES)	Clonic Convulsion Incidence (DBA/2 mice; 30 mg/kg IP)	Tonic Extension Incidence (DBA/2 mice; 30 mg/kg IP)	Wild Running Incidence (DBA/2 mice; 30 mg/kg IP)	Clonic Convulsion Latency (DBA/2 mice; 30 mg/kg IP)	Tonic Extension Latency (DBA/2 mice; 30 mg/kg IP)	Wild Running Latency (DBA/2 mice; 30 mg/kg IP)	Audiogenic Response Score (DBA/2 mice; 30 mg/kg IP)	change in number of mice showing clonic convulsions (DBA/2 mice; 30 mg/kg IP)	change in number of mice showing tonic convulsions (DBA/2 mice; 30 mg/kg IP)	increase in latency to clonic convulsions (DBA/2 mice; 30 mg/kg IP)	increase in latency to tonic convulsions (DBA/2 mice; 30 mg/kg IP)	reduction of overall audiogenic response score (DBA/2 mice; 30 mg/kg IP)	anticonvulsant activity in the audiogenic seizure test (DBA/2 mice)	percentage of animals protected against psychomotor seizures (CF-1 mice)	further results
CCN[C@H](C)Cc1cccc(C(F)(F)F)c1 [(R)-fenfluramine, (R)—N-ethyl-1-(3-(trifluoromethyl)phenyl)propan-2-amine]	60%	0%	100%	31.9 ± 7.7 s	60.0 ± 0.0 s	5.0 ± 1.4 s	1.6 ± 0.16	−40%	−100%	+450%	+641%	50%	clear anticonvulsant activity	31.3%	
CCNC(C)Cc1cccc(C(F)(F)F)c1 (racemic) [(rac)-fenfluramine, (R/S)—N-ethyl-1-(3-(trifluoromethyl)phenyl)propan-2-amine]	10%	0%	80%	55.3 ± 4.8 s	60.0 ± 0.0 s	16.6 ± 7.4 s	0.9 ± 0.18	−90%	−100%	+853%	+641%	72%	clear anticonvulsant activity	37.5%	Clonic Convulsion Incidence (DBA/2 mice; 15 mg/kg IP): 60%; Tonic Extension Incidence (DBA/2 mice; 15 mg/kg IP): 0%; Wild Running Incidence (DBA/2 mice; 15 mg/kg IP): 100%; Clonic Convulsion Latency (DBA/2 mice; 15 mg/kg IP): 31.4 ± 7.8 s; Tonic Extension Latency (DBA/2 mice; 15 mg/kg IP): 60.0 ± 0.0 s; Wild Running Latency (DBA/2 mice; 15 mg/kg IP): 4.0 ± 0.7 s; Audiogenic Response Score (DBA/2 mice; 15 mg/kg IP): 1.6 ± 0.16; change in number of mice showing clonic convulsions (DBA/2 mice; 15 mg/kg IP): −40%; change in number of mice showing tonic convulsions (DBA/2 mice; 15 mg/kg IP): −100%; increase in latency to clonic convulsions (DBA/2 mice; 15 mg/kg IP): +441%; increase in latency to tonic convulsions (DBA/2 mice; 15 mg/kg IP): +641%; reduction of overall audiogenic response score (DBA/2 mice; 15 mg/kg IP): 50%; protective activity against seizures in the 6 Hz psychomotor seizure assay (CF-1 mice; summary statement): exhibited protective activity against seizures
